Assay results as given in patent US10464963B2, “Compounds from invasive Salvinias and methods of using the same” (STEPHEN F. AUSTIN STATE UNIVERSITY, priority 2013, dated 2019).
Where two headings read alike, the source gives them in different places.

Tests used:
[1] = Cytotoxicity assay (WST-8), MRC-5; assay type: cell-based, human; conditions: human
Description: (§1) PANC-1 and MRC-5 was cultured in complete growth medium according to the ATCC protocols. Cells were grown at 37° C. and 5% CO2 in humidified air.
(§2) Cytotoxicity of total extracts of S. molesta was tested against PANC-1, A549, PC-3, and MRC-5. Cytotoxicity of the fractions was determined using A549 cells, a human non-small lung cancer cell line. Fractions were tested at 25, 50, and 100 μg/mL. The isolated pure compounds were tested in each of the cultured human tumor and normal cell lines at various concentrations between 1 and 100 μM with three replications. Human tumor and normal cells were inoculated into 96 well microtiter plates in 90 μL at plating densities ranging from 5,000 to 40,000 cells/well (measured by Z2 Coulter Counter of Beckman) depending on the doubling time of individual cell lines. Cell growth and viability was measured by WST-8 (Water Soluble Tetrazolium) assays following a standard protocol (Cell Counting Kit-8, Dojindo Molecular, Maryland). The WST-8 assay measured the relative activity of mitochondrial reductase enzymes in viable cells. A control WST reading (T0) before treatment was measured, then cells were continuously exposed to isolates for 48 h. After WST added and incubated for 2 h, the amount of formazan was measured by using a microplate spectrophotometer (μQuant spectrophotometer, Bio-Tek Instruments, Inc., Vermont) at 450 nm. TC or TD represents the readings of the untreated control or with tested compounds. Percent cell-growth (G) and percent cell-growth inhibition (GI) was calculated as: G=(TD−T0/TC−T0)×100; GI=[1−(TD−T0/TC−T0)]×100 for which TD≥T0; and G=(TD−T0/T0)×100; GI=[1−(TD−T0/T0)]×100 for which TD≤T0. […] Cancer drug doxorubicin was used as the positive controls in the cell-based assays.

[2] = system: human prostate cancer (PC-3); assay: Cytotoxicity assay (WST-8), PC-3; assay type: cell-based
Description: as §1, §2

[3] = system: human exocrine pancreatic cancer (BxPC-3); assay: Cytotoxicity assay (WST-8), BxPC-3; assay type: cell-based
[4] = system: human exocrine pancreatic cancer (PANC-1); assay: Cytotoxicity assay (WST-8), PANC-1; assay type: cell-based
Description: as §1, §2

[5] = system: human non-small cell lung cancer (A549); assay: Cytotoxicity assay (WST-8), A549; assay type: cell-based
Description: as §1, §2

[6] = system: human leukemia (HL-60); assay: Cytotoxicity assay (WST-8), HL-60; assay type: cell-based
[7] = system: normal human lung fibroblasts cells (MRC-5); assay: Cytotoxicity assay (WST-8), MRC-5; assay type: cell-based
Description: as §1, §2

[8] = system: human breast cancer (MDA-MB-231); assay: cells; assay type: cell-based
Description: Human exocrine pancreatic cancer (PANC-1 and BxPC-3), non-small cell lung cancer (A549), prostate cancer (PC-3), breast cancer (MDA-MB-231), and leukemia (HL-60) were obtained from The University of Texas M. D. Anderson Cancer Center, Houston, Tex., and Normal human lung fibroblasts cells (MRC-5) was purchased from the American Type Culture Collection (ATCC). PC-3, A549 and HL-60 cells were maintained in RPMI 1640 medium supplemented with 10% (v/v) fetal bovine serum and antibiotics (1,000 units/mL penicillin-streptomycin solution, Hyclone). PANC-1 and MRC-5 was cultured in complete growth medium according to the ATCC protocols. Cells were grown at 37° C. and 5% CO2 in humidified air.
Cytotoxicity of total extracts of S. molesta was tested against PANC-1, A549, PC-3, and MRC-5. Cytotoxicity of the fractions was determined using A549 cells, a human non-small lung cancer cell line. Fractions were tested at 25, 50, and 100 μg/mL. The isolated pure compounds were tested in each of the cultured human tumor and normal cell lines at various concentrations between 1 and 100 μM with three replications. Human tumor and normal cells were inoculated into 96 well microtiter plates in 90 μL at plating densities ranging from 5,000 to 40,000 cells/well (measured by Z2 Coulter Counter of Beckman) depending on the doubling time of individual cell lines. Cell growth and viability was measured by WST-8 (Water Soluble Tetrazolium) assays following a standard protocol (Cell Counting Kit-8, Dojindo Molecular, Maryland). The WST-8 assay measured the relative activity of mitochondrial reductase enzymes in viable cells. A control WST reading (T0) before treatment was measured, then cells were continuously exposed to isolates for 48 h. After WST added and incubated for 2 h, the amount of formazan was measured by using a microplate spectrophotometer (μQuant spectrophotometer, Bio-Tek Instruments, Inc., Vermont) at 450 nm. TC or TD represents the readings of the untreated control or with tested compounds. Percent cell-growth (G) and percent cell-growth inhibition (GI) was calculated as: G=(TD−T0/TC−T0)×100; GI=[1−(TD−T0/TC−T0)]×100 for which TD≥T0; and G=(TD−T0/T0)×100; GI=[1−(TD−T0/T0)]×100 for which TD≤T0. To determine the inhibitory potency of active compounds (GI50, 50% cell-growth inhibition), tests were extended to additional concentrations (varying from 0.01 to 100 μM). Cancer drug doxorubicin was used as the positive controls in the cell-based assays.

[9] = Homo sapiens, 48 h, read-out: Cytotoxic activity (GI50) PC-3
[10] = Homo sapiens, BXPC-3, 48 h, read-out: Cytotoxic activity (GI50) BxPC-3
[11] = Homo sapiens, PANC-1, 48 h, read-out: Cytotoxic activity (GI50) PANC-1
[12] = Homo sapiens, A549, 48 h, read-out: Cytotoxic activity (GI50) A549
[13] = Homo sapiens, HL-60, 48 h, read-out: Cytotoxic activity (GI50) HL-60
[14] = Homo sapiens, A549, Table 1, read-out: Activity against human non-small cell lung tumor A549 (GI50) (converted)
[15] = Homo sapiens, BXPC-3, Table 1, read-out: Activity against human exocrine pancreatic tumor BxPC-3 (GI50) (converted)
[16] = Homo sapiens, PANC-1, Table 1, read-out: Activity against human exocrine pancreatic tumor PANC-1 (GI50)
[17] = Homo sapiens, Table 7, WST-8, 48 h exposure, mean ± S.D., read-out: Cytotoxic activity (GI50) PC-3
[18] = Homo sapiens, BXPC-3, Table 7, WST-8, 48 h exposure, mean ± S.D., read-out: Cytotoxic activity (GI50) BxPC-3
[19] = Homo sapiens, PANC-1, Table 7, WST-8, 48 h exposure, mean ± S.D., read-out: Cytotoxic activity (GI50) PANC-1
[20] = Homo sapiens, A549, Table 7, WST-8, 48 h exposure, mean ± S.D., read-out: Cytotoxic activity (GI50) A549
[21] = Homo sapiens, HL-60, Table 7, WST-8, 48 h exposure, mean ± S.D., read-out: Cytotoxic activity (GI50) HL-60

CC(C)C1=C(O)C(=O)C2=C(C=CC3C(C)(C)CCC[C@]23C)C1=O (stereo partly shown) [Compound 21, 6,7-dehydroroyleanone]
GI50 at 48 h ([1]; Table 7, normal lung cells, WST-8, 48 h exposure, mean ± S.D., read-out: Cytotoxic activity (GI50) MRC-5): 40.2 ± 2.06 µM | GI50 [2, 9]: 46.3 ± 6.6 µM | GI50 ([2]; Homo sapiens, read-out: Activity against human prostate tumor PC-3 (GI50)): 46.3 µM | GI50 [3, 10]: 41.7 ± 2.92 µM | GI50 ([3]; Homo sapiens, BXPC-3, read-out: Activity against human exocrine pancreatic tumor BxPC-3 (GI50)): 41.7 µM | GI50 [4, 11]: 51.3 ± 10 µM | GI50 ([4]; Homo sapiens, PANC-1, read-out: Activity against human exocrine pancreatic tumor PANC-1 (GI50)): 51.3 µM | GI50 [5, 12]: 48 ± 7.75 µM | GI50 ([5]; Homo sapiens, A549, read-out: Activity against human non-small cell lung tumor A549 (GI50)): 48 µM | GI50 [6, 13]: 30 ± 8.3 µM | GI50 ([6]; Homo sapiens, HL-60, read-out: Activity against human leukemia HL-60 (GI50)): 30 µM

CC(C)c1cc2c(cc1O)[C@@]1(C)CCCC(C)(C)C1=CC2=O [Compound 9, 5,6-dehydrosugiol]
GI50 at 48 h [1]: > 100 µM | GI50 [2, 9]: > 100 µM | GI50 [3, 10]: > 100 µM | GI50 [4, 11]: > 100 µM | GI50 [5, 12]: 84.5 ± 18.7 µM | GI50 [5, 14]: 84.5 µM | GI50 [6, 13]: 92.8 ± 9.98 µM

CC(C)c1cc2c(c(O)c1O)[C@@]1(C)CCCC(C)(C)C1=C(O)C2=O [Compound 7, 14-deoxycoleon U]
GI50 at 48 h [1]: 24.8 µM | Toxicity against normal cell (in words) [7]: no toxic against normal cell | GI50 ([8]; MDA-MB-231, 48 h, read-out: Cytotoxic activity (GI50) MDA-MB-231): > 100 µM | GI50 ([8]; MDA-MB-231, Table 1, read-out: Activity against human breast tumor MDA-MB-231 (GI50)): > 100 µM | GI50 [2, 9]: 8.39 ± 0.86 µM | GI50 [3, 10]: 37.3 ± 7.44 µM | GI50 [3, 15]: 37.3 µM | GI50 [4, 11]: 22.6 ± 4.18 µM | GI50 [4, 16]: 22.6 µM | GI50 [5, 12]: 9.1 ± 2.47 µM | GI50 [5, 14]: 9.1 µM | GI50 [6, 13]: 13.3 ± 5.62 µM

CC(C)c1cc2c(cc1O)[C@@]1(C)CCCC(C)(C)[C@@H]1CC2 [Compound 14, ferruginol]
GI50 ([7]; human, 48 h): 40 ± 7.74 µM | GI50 [2, 17]: 56.5 ± 16.5 µM | GI50 [3, 18]: 21.1 ± 0.51 µM | GI50 [4, 19]: 41.1 ± 14.1 µM | GI50 [5, 20]: 30.7 ± 5.22 µM | GI50 [6, 21]: 27.3 ± 8.95 µM

COc1cc2c(cc1C(C)C)C(=O)C(O)=C1C(C)(C)CCC[C@@]12C [Compound 11, montbretyl 12-methyl ether]
GI50 [5, 14]: 21.2 µM | GI50 [5, 20]: 21.2 ± 6.21 µM

CC(C)C1=Cc2ccc3c(c2C(=O)C1=O)C(=O)CCC3(C)C [Compound 19, 1-oxomiltirone]
GI50 [7]: 20.4 ± 3.36 µM | GI50 ([2]; Table 7, WST-8, 48 h exposure, mean ± S.D., read-out: Cytotoxic activity (GI50) PC-3): 19 ± 5.34 µM | GI50 ([3]; Table 7, WST-8, 48 h exposure, mean ± S.D., read-out: Cytotoxic activity (GI50) BxPC-3): 20.5 ± 2 µM | GI50 ([4]; Table 7, WST-8, 48 h exposure, mean ± S.D., read-out: Cytotoxic activity (GI50) PANC-1): 32.1 ± 2.75 µM | GI50 ([5]; Table 7, WST-8, 48 h exposure, mean ± S.D., read-out: Cytotoxic activity (GI50) A549): 24.9 ± 5.94 µM | GI50 ([6]; Table 7, WST-8, 48 h exposure, mean ± S.D., read-out: Cytotoxic activity (GI50) HL-60): 23.3 ± 6.66 µM

CC(C)c1cc2ccc3c(c2cc1O)CCCC3(C)C [Compound 17, 12-hydroxy simonellite]
GI50 ([7]; human, 48 h): 55.4 ± 4.94 µM | GI50 ([2]; Homo sapiens, Table 1, read-out: Activity against human prostate tumor PC-3 (GI50) (converted)): 43.6 µM | GI50 [2, 17]: 43.6 ± 11.9 µM | GI50 [3, 15]: 36.4 µM | GI50 [3, 18]: 36.4 ± 8.08 µM | GI50 [4, 16]: 37.5 µM | GI50 [4, 19]: 37.5 ± 5.72 µM | GI50 [5, 14]: 42.2 µM | GI50 [5, 20]: 42.2 ± 3.89 µM | GI50 ([6]; Homo sapiens, HL-60, Table 1, read-out: Activity against human leukemia HL-60 (GI50) (converted)): 50 µM | GI50 [6, 21]: 50 ± 15.2 µM
